{"source": "patent US6416967B2", "about": "“Method of using multicellular particulates to analyze malignant or hyperproliferative tissue” (Precision Therapeutics, Inc., priority 1996, dated 2002)", "assay_type_in_all_cases": "cell-based", "key": {"[1]": {"test_system": "human brain tumor and human ovarian tumor cells", "test": "Combined modality drug/radiation microtiter assay (Example 7)", "conditions": "Taxol 0.5-25.0 μM with 2 Gy, or Taxol 5 μM with 1 Gy-6 Gy; through 5 days post-treatment; four tumor specimens", "method": "Twenty-four (24) hours post-plating, cells in the microtiter plate wells were exposed to the chemotherapeutic agent Taxol. One set of plates was designed to have escalating Taxol doses with (0.5-25.0 μM) with a fixed radiation dose (2 Gy). A second set of plates was designed to have a fixed Taxol dose (5 μM) with an escalating radiation dose (1 Gy-6 Gy). The cells in the plates were irradiated using a Siemans Stabilipan X-ray machine operating at 250 kVp, 15 mA with a dose rate of 75 rad/minute.\nFor each of the two treatment schema, cell number per well was monitored as a function of time through 5 days post-treatment. Cell number relative to controls was determined and survival curves were fit."}, "[2]": {"test_system": "human ovarian tumor cells", "test": "Combination chemotherapy microtiter assay, Taxol and carboplatin (Example 4)", "conditions": "then 48 hours, four tumor specimens", "method": "Twenty-four (24) hours post-plating, the chemotherapeutic agent Taxol was applied to the wells in the microtiter plates. […] Rows 5 and 9 served as a control. The Taxol exposure time was two hours. Twenty-four hours later, the cells in the wells were exposed to carboplatin for two hours. The tumor cells in the wells were then incubated for another 48 hours.\nCell number relative to control was determined."}, "human breast tumor cells": {"test_system": "human breast tumor cells", "test": "Hormonal therapy microtiter assay, inhibition of cell proliferation (Example 5)"}}}
{"smiles": "CC(=O)O[C@H]1C(=O)[C@@]2(C)[C@H]([C@H](OC(=O)c3ccccc3)[C@]3(O)C[C@H](OC(=O)[C@H](O)[C@@H](NC(=O)c4ccccc4)c4ccccc4)C(C)=C1C3(C)C)[C@]1(OC(C)=O)CO[C@@H]1C[C@@H]2O", "note": "[Taxol]", "values": [{"measurement": "cell killing by drug combined with radiation (cell number relative to controls, survival curves)", "setting": "[1]", "value": "Both additive and synergistic cell killing"}, {"measurement": "cell number relative to control, escalating Taxol/fixed carboplatin", "setting": "[2]; Taxol 1.0, 5.0, 25 μM for two hours, carboplatin 200 μM for two hours 24 h later", "value": "dose response relationship was observed"}]}
{"smiles": "N.N.O=C([O-])C1(C(=O)[O-])CCC1.[Pt+2]", "note": "[carboplatin]", "values": [{"measurement": "cell number relative to control, fixed Taxol/escalating carboplatin", "setting": "[2]; Taxol 5 μM for two hours, carboplatin 50, 200, 1000 μM for two hours 24 h later", "value": "dose response relationship was observed"}]}
{"smiles": "CC/C(=C(\\c1ccccc1)c1ccc(OCCN(C)C)cc1)c1ccccc1", "note": "[Tamoxifen]", "values": [{"measurement": "inhibition of cell proliferation (cell number relative to control)", "setting": "human breast tumor cells; 10 nM to 20 μM, six doses, 24 hours exposure, then 72 hours, four breast tumor specimens", "value": "two of the four breast specimens tested showed an inhibition of cell proliferation"}, {"measurement": "concentration range in which the responses occurred", "setting": "human breast tumor cells; tested range 10 nM to 20 μM", "value": "mid to high"}]}
